{
  "source": "paper PMC10149936",
  "about": "“Cofilin activation in pancreatic acinar cells plays a pivotal convergent role for mediating CCK-stimulated enzyme secretion and growth” (Frontiers in Physiology, 2023)",
  "key": {"[1]": {"system": "cofilin (pS3) in rat pancreatic acini", "assay": "cofilin activation (phospho-pS3 cofilin Western blot) in isolated rat pancreatic acini", "type": "cell-based", "conditions": "for phosphorylation levels of cofilin with CCK-8 or TPA after cofilin inhibitor / inhibition of cofilin activation stimulated by CCK-8 or TPA: Cytochalasin D 10 µM or Paclitaxel 5 µM, 3 h; for phosphorylation levels of cofilin with CCK-8 or TPA after cofilin inhibitor: CCK-8 0.3 and 100 nM; for phosphorylation levels of cofilin with CCK-8 or TPA after cofilin inhibitor / time of return of cofilin phosphorylation to original basal level: TPA 1 µM; for inhibition of cofilin activation stimulated by CCK-8 or TPA: CCK-8 0.3 or 100 nM 3 min, TPA 1 µM 5 min; for time of return of cofilin phosphorylation to original basal level: CCK-8 0.3 or 100 nM", "description": "(§1) Pancreatic acini preparations were obtained by collagenase digestion as previously described ([Bissonnette et al., 1984]; [Sato et al., 1989]; [Ramos-Alvarez and Jensen, 2018]). After collagenase digestion, dispersed acini were preincubated with different inhibitors in standard incubation solution ([Ramos-Alvarez and Jensen, 2018]; [Ramos-Ãlvarez et al., 2020]) for 3 h at 37°C under conditions specific for PKD/PKC, Src, PI3K, MAPKs, SSH1, LIMK, cofilin, other phosphatases and PAK4 inhibitors, as described previously ([Ramos-Alvarez and Jensen, 2018]; [Ramos-Ãlvarez et al., 2020]). Isolated acini and CCK1-R/Panc-1 cells (M&M 2.2.1) were also preincubated with two SSH1 inhibitors, D3 (25 μM, 1 h) ([Li et al., 2015]) or SE (50 μM, 3 h for acini; 24 h for CCK1-R/Panc-1 cells) ([Lee et al., 2017]). After preincubation, 1 mL aliquots of dispersed acini were incubated at 37°C for 3–15 min with CCK-8 (0.3 nM or 100 nM), for 5–15 min with TPA (1 µM) or without stimulants, used as control. Cells were lysed in lysis buffer (50 mM Tris/HCl pH 7.5, 150 mM NaCl, 1% Triton X-100, 1% deoxycholate, 0.1% sodium azide, 1 mM EGTA, 0.4 mM EDTA, 0.2 mM sodium orthovanadate, 1 mM PMSF, and one protease inhibitor tablet per 10 mL). After sonication, lysates were centrifuged at 10,000×g for 15 min at 4°C and protein concentration was measured using the Bio-Rad protein assay reagent. Finally, cells were processed as below for Western blotting.\nBoth concentrations of CCK-8 were used because CCK-8 is reported to have different responses with physiological and supraphysiological concentrations contributing to physiological and pathophysiological processes such as pancreatitis ([Dufresne et al., 2006]).\nWestern blotting and immunoprecipitation were performed as described previously ([Ramos-Alvarez and Jensen, 2018]). Whole cell lysates were subjected to SDS-PAGE using 4%–20% Tris–Glycine gels. […] Finally, membranes were then washed again twice in blocking buffer for 4 min, twice in washing buffer for 4 min, incubated for 4 min with chemiluminescence detection reagents. The intensity of the protein bands was measured using GeneTools software from Syngene, which were assessed in the linear detection range.\nAll experiments were performed at least 3 times. Data are presented as mean ± SEM and were analyzed with the non-parametric Kruskal–Wallis analysis (data was not normally distributed) and the Dunn’s multiple comparison test using the GraphPad Prism 8.0 software. P values < 0.05 were considered significant.\n(A) Isolated pancreatic acini were incubated in the absence or presence of CCK-8 (100 nM), carbachol (1 μM), bombesin (1 nM), secretin (1 nM) or VIP (1 nM) for 1 min and then lysed. (B) Isolated pancreatic acini were incubated in the absence or presence of CCK-8 and CCK-JMV (at the indicate concentrations) for 3 min and then lysed. Western blots were analyzed using anti-pS3 cofilin, which mediates the activation state of cofilin. Bands were visualized using chemiluminescence and quantified by densitometry."}, "[2]": {"system": "pancreatic acini", "assay": "amylase release from pancreatic acini (Phadebas)", "type": "cell-based, rat", "conditions": "for inhibition of amylase secretion stimulated by CCK-8 and TPA / effect on basal amylase release: Cytochalasin D 10 µM or Paclitaxel 5 µM; for inhibition of amylase secretion stimulated by CCK-8 and TPA: 4 h, CCK-8 0.3 and 100 nM; for inhibition of amylase secretion stimulated by CCK-8 and TPA / increase in amylase release: 30 min; for effect on basal amylase release: pancreatic acini (Figure 13A)", "description": "as §1, with “After collagenase digestion, dispersed acini were preincubated with different inhibitors in standard incubation solution ([Ramos-Alvarez and Jensen, 2018]; [Ramos-Ãlvarez et al., 2020]) for 3 h at 37°C under conditions specific for PKD/PKC, Src, PI3K, MAPKs, SSH1, LIMK, cofilin, other phosphatases and PAK4 inhibitors, as described previously ([Ramos-Alvarez and Jensen, 2018]; [Ramos-Ãlvarez et al., 2020]).” left out\nAmylase release was performed as described previously ([Sato et al., 1989]; [Ramos-Alvarez and Jensen, 2018]). Amylase activity was determined after 30 min incubation using the Phadebas reagent and was expressed as percentage of the total cellular amylase released into the extracellular medium during the incubation ([Ramos-Alvarez and Jensen, 2018]).\nFIGURE 13 Effect of two cofilin inhibitors, Cytochalasin D or Paclitaxel, (A, B), or Cofilin siRNA (C), on the ability of CCK/TPA/A71378-stimulated amylase release form pancreatic acini (A) or AR42J cells (B, C). In (A, B) pancreatic acini and AR42J cells were incubated in the absence or presence of Cytochalasin D (10 µM) or Paclitaxel (5 µM) for 4 h and then incubated with no additions (control) or CCK-8 (0.03, 0.3, 1 and 100 nM), TPA (1 µM) or A71378 (0.03 and 1 nM) for 30 min and then lysed. In (B, C) AR42J cells were treated with Dexamethasone (100 nM) for 72 h, and in (C) AR42J cells were transfected with siRNA Non-targeting Control and siRNA against cofilin for 48 h, and then incubated with no addition (control) or CCK-8 (0.03 and 1 nM) and A71378 (0.03 and 1 nM) for 30 min. Amylase release, expressed as percent of cellular total amylase secreted, was determined after 30 min incubation. Means ± S.E. of at least 3 independent experiments. N.S., No significant."}},
  "data": [
    {"compound": "C=C1[C@@H](C)[C@H]2[C@H](Cc3ccccc3)NC(=O)[C@]23[C@H](OC(C)=O)/C=C/[C@@](C)(O)C(=O)[C@@H](C)C/C=C/[C@H]3[C@@H]1O", "note": "[Cytochalasin D]", "values": [
      {"measurement": "phosphorylation levels of cofilin with CCK-8 or TPA after cofilin inhibitor", "setting": "[1]", "value": "significant increase in phosphorylation levels of cofilin"},
      {"measurement": "inhibition of cofilin activation stimulated by CCK-8 or TPA", "setting": "[1]", "value": "completely inhibited"},
      {"measurement": "inhibition of amylase secretion stimulated by CCK-8 and TPA", "setting": "[2]; TPA 1 µM", "value": "completely inhibited"},
      {"measurement": "effect on basal amylase release", "setting": "[2]", "value": "Neither of these two cofilin inhibitors influenced basal amylase release"}
    ]},
    {"compound": "CC(=O)O[C@H]1C(=O)[C@@]2(C)[C@H]([C@H](OC(=O)c3ccccc3)[C@]3(O)C[C@H](OC(=O)[C@H](O)[C@@H](NC(=O)c4ccccc4)c4ccccc4)C(C)=C1C3(C)C)[C@]1(OC(C)=O)CO[C@@H]1C[C@@H]2O", "note": "[Paclitaxel]", "values": [
      {"measurement": "phosphorylation levels of cofilin with CCK-8 or TPA after cofilin inhibitor", "setting": "[1]", "value": "significant increase in phosphorylation levels of cofilin"},
      {"measurement": "inhibition of cofilin activation stimulated by CCK-8 or TPA", "setting": "[1]", "value": "completely inhibited"},
      {"measurement": "inhibition of amylase secretion stimulated by CCK-8 and TPA", "setting": "[2]; TPA 1 µM", "value": "completely inhibited"},
      {"measurement": "effect on basal amylase release", "setting": "[2]", "value": "Neither of these two cofilin inhibitors influenced basal amylase release"}
    ]},
    {"compound": "CCCCCCCCCCCCCC(=O)O[C@@H]1[C@@H](C)[C@@]2(O)[C@@H](C=C(CO)C[C@]3(O)C(=O)C(C)=C[C@@H]23)[C@H]2C(C)(C)[C@]12OC(C)=O", "note": "[TPA, 12-O-tetradecanoylphobol-13-acetate]", "values": [
      {"measurement": "time of return of cofilin phosphorylation to original basal level", "setting": "[1]", "value": 60, "unit": "min"},
      {"measurement": "increase in amylase release", "setting": "[2]; TPA 1 µM", "value": 278, "unit": "%"}
    ]},
    {"compound": "COOH-terminal octapeptide of cholecystokinin [CCK-8]", "values": [
      {"measurement": "effect on cofilin phosphorylation (pS3)", "setting": "[1]; 1 min, CCK-8 100 nM, carbachol 1 μM, bombesin 1 nM, secretin 1 nM or VIP 1 nM, n at least 3", "value": "rapidly decreased cofilin phosphorylation"},
      {"measurement": "concentration with detectible decrease in cofilin phosphorylation", "setting": "[1]; 3 min", "value": 1, "unit": "pM"},
      {"measurement": "time of return of cofilin phosphorylation to original basal level", "setting": "[1]", "value": 60, "unit": "min"},
      {"measurement": "maximal dephosphorylation (i.e., activation) of cofilin", "setting": "[1]; at 1 nM, 3 min", "value": 62, "unit": "%"},
      {"measurement": "share of CCK-8 stimulation of cofilin activation mediated by the high-affinity state CCK1 receptor", "setting": "[1]; from comparison with CCK-JMV", "value": 58, "unit": "%"},
      {"measurement": "share of CCK-8 stimulation of cofilin activation mediated by the low affinity CCK1 receptor state", "setting": "[1]; from comparison with CCK-JMV", "value": 42, "unit": "%"},
      {"measurement": "EC50", "setting": "[1]; pS3 cofilin, 3 min incubation, at least 3 experiments, mean ± SEM, read-out: half-maximal effect (EC50) for decrease of cofilin phosphorylation", "value": "1.8 ± 0.1", "unit": "pM"},
      {"measurement": "increase in amylase release", "setting": "[2]; CCK-8 0.3 nM", "value": 207, "unit": "%"}
    ]}
  ]
}
